Laboratory results: patent publication US6372897B1, “Mimotopic polypeptides of toxoplasma gondii and applications” (priority 1995, dated 2002)
Ends that are not written are not given here.

B1: P30 protein: the Toxoplasma gondii major antigen, peptide sequence identified by SEQ ID No.1 (protein)
chain: MSVSLHHFIISSGFLTSMFPKAVRRAVTAGVFAAPTLMSFLRCGVMASDPPLVANQVVTCPDKKSTAAVILTPTENHFTLKCPKTALTEPPTLAYSPNRQICPAGTTSSCTSKAVTLSSLIPEAEDSWWTGDSASLDTAGIKLTVPIEKFPVTTQTFVVGCIKGDDAQSCMVTVTVQARASSVVNNVARCSYGADSTLGPVKLSAEGPTTMTLVCGKDGVKVPQDNNQYCSGTTLTGCNEKSFKDILPKLTENPWQGNASSDKGATLTINKEAFPAESKSVIIGCTGGSPEKHHCTVKLEFAGAAGSAKSSAGTASHVSIFAMVTGLIGSIAACVA

How the values were obtained:
[1] = tested on: anti-P30 monoclonal antibody 1E1E7; test: Spotscan overlapping pentadecapeptides on cellulose membrane, immunoreactivity with 1E1E7; assay type: binding, mouse; conditions: 1E1E7 60 nM
Method: According to the “Spotscan” technique, the synthesis of the peptides is carried out on cellulose membranes (Cambridge Research Biochemicals). The principle of the method is the same as that for Pepscan. The esterified amino acids are solubilized in N-methylpyrrolidone (NMP) at the concentration of […] and 0.9 μl are deposited at the level of spots for the deposition of bromophenol blue. After a 15 minute incubation, another deposition of amino acids is carried out followed by another 15 minute incubation. If the coupling between the two amino acids is carried out correctly, a change in color is observed (passage from blue to yellowish green). After three washes in DMF, an acetylation step is carried out with acetic anhydride. Then the terminal amino groups of the peptides being synthesized are deprotected with 20% piperidine in DMF. The deposition spots are restained with a 1% bromophenol blue solution in DMF, washed three times with methanol and dried. These operations as a whole constitute a cycle for addition of an amino acid and this cycle is repeated up to the end of the synthesis. When all the amino acids have been added, the NH2-terminal group of the last amino acid is deprotected with 20% piperidine in DMF and is acetylated with acetic anhydride. The side chain protecting groups are removed by a dichloromethane:trifluoroacetic acid:triisobutylsilane mixture (5 ml:5 ml:250 μl). The immunoreactivity of the peptides thus synthesized can then be tested by ELISA.
In order to reproduce the entire pentadecapeptide included in the phage clone isolated and to determine the possible role of the contiguous amino acids belonging to the sequence of the PIII protein of the phage (see Example 1), the chemical synthesis of overlapping pentadecapeptides, which cover the sequence […](SEQ ID No.59), was carried out on an activated cellulose membrane (“Spotscan”).
After synthesis of the various pentadecapeptides, the membrane is rinsed with methanol, washed in TBS (0.1M Tris, pH 7.2) and then incubated overnight at room temperature in saturation buffer (marketed by Cambridge Research Biochemicals). After several washes with TBS-T (0.1M Tris, pH 7.2-0.05% Tween 20), the membrane is brought into contact with a solution of anti-P30 monoclonal antibody 1E1E7 (60 nM) and incubated for 4 hours at room temperature. After three washes with TBS-T, the anti-mouse immunoglobulin conjugate labeled with galactosidase (marketed by Cambridge Research Biochemicals) is added at a 1/200 dilution and the whole is incubated for two hours at room temperature. After several washes of the membrane with PBS-Tween 0.05% and PBS, the immunoreactivity at the level of the various spots is visualized by adding a solution of substrate (5-bromo-4-chloro-3-indoyl-D-galactopyranoside in PBS containing magnesium chloride and potassium ferricyanide) and incubating for 10 to 40 minutes. The color of the spots is assessed qualitatively.

[2] = molecular target: T1, phage clone identified (SEQ ID No.48) (Enterobacteria phage fd, UniProt P03661); test: ELISA: inhibition by human serum of the attachment of monoclonal antibody 1E1E7 to the phage clone; assay type: binding; conditions: phages containing the sequence
T1 construct: made in house; host or cells: E. coli (K19Kan), phage amplification
Method: The ELISA test was carried out as described in Example 2 with the following modifications: 100 μl of various dilutions of human serum of a patient infected with Toxoplasma gondii (positive serum—reference G8) are brought into contact with the. phage clone identified, immobilized as described in Example 2, for 30 minutes at 37° C. After two washes with TBS/Tween 0.05%, 100 μl of monoclonal antibody 1E1E7 at the concentration of 6 nM are added and incubated overnight at 4° C. After four washes with TBS/Tween, 100 μl of anti-mouse conjugate labeled with peroxidase are added and then incubated for one hour at 37° C. The enzymatic reaction for visualization was carried out by adding 100 μl of an H2O2/orthophenylenediamine (OPD) solution and incubating the sample for 30 minutes at room temperature. The staining reaction is stopped by adding 50 μl of 1.8N sulfuric acid. The optical density is measured on a BioMé rieux plate reader at 492 nm. Moreover, a control was produced, under the same reaction conditions but with a human serum not infected with Toxoplasma gondii (negative serum), in order to ensure that the phage clone identified reacts specifically with the human serum of a patient infected with Toxoplasma gondii.

[3] = molecular target: phage clone displaying the pentadecapeptide Trp-His-Trp-Arg-His-Arg-Ile-Pro-Leu-Gln-Leu-Ala-Ala-Gly-Arg (SEQ ID No.48) fused in the PIII protein (filamentous phage); test: phage ELISA, phages captured by anti-M13 antibodies, 1E1E7 at 3 nM
[4] = tested on: anti-P30 monoclonal antibody 1E1E7; test: Competition ELISA: inhibition by native P30 protein of the ELISA response of the phage clone; assay type: binding, mouse; conditions: phage clone SEQ ID No.48
Method: A competition ELISA test was carried out in order to determine if the response obtained with the phage clone identified is inhibited by pre-incubation of the anti-P30 monoclonal antibody 1E1E7 with the P30 protein.
The ELISA test is carried out as described in Example 2 with the following modifications: the monoclonal antibody 1E1E7 (at the concentration of 6 nM) is preincubated with various concentrations of P30 protein for 20 minutes at 37° C. and then the mixture is added to the wells of the ELISA plate in which the phages corresponding to the pentadecapeptide Trp-His-Trp-Arg-His-Arg-Ile-Pro-Leu-Gln-Leu-Ala-Ala-Gly-Arg (SEQ ID No.48) are attached.

| Molecule | Color of the spots (immunoreactivity), assessed qualitatively [1] | other results |
| --- | --- | --- |
| HRIPLQLAAGRGAAG [SEQ ID No.9] | maximum |  |
| IPLQLAAGRGAAGAE [SEQ ID No.33] | very slight color |  |
| PLQLAAGRGAAGAET [SEQ ID No.34] | disappears completely |  |
| RIPLQLAAGRGAAGA [SEQ ID No.32] | maximum |  |
| SADGAWHWRHRIPLQ [SEQ ID No.231] | a first color |  |
| WHWRHRIPLQLAAGR [SEQ ID No.48] |  | Recognition by the antibodies present in the sera of patients infected with Toxoplasma gondii [2]: indeed recognized |
| anti-P30 monoclonal antibody 1E1E7 (BioMerieux) |  | OD (492 nm) [3]: 0.269 to 0.274 OD 492 nm |
| B1 |  | Inhibition of the ELISA response ([4]; P30 protein 35 ng/ml preincubated with 6 nM 1E1E7): 45%; Inhibition of the ELISA response ([4]; P30 protein 3.5 μg/ml preincubated with 6 nM 1E1E7): 80% |
